Laboratory results from EP0172321B1, “Squarylium charge generating dye and electrophotographic photoconductor” (International Business Machines Corporation, priority 1984, dated 1986).
Several values for one entry are separate records, joined by “and”; a condition that tells them apart may be missing. Equal values may be shown once.

What was measured:
[1] = test system: Salmonella typhimurium: TA1535, TA1537, TA1538, TA98 and TA100; assay: Ames Salmonella/microsome assay, five standard strains; assay type: cell-based; set-up: unit not given here; details: Ames plates, DMSO solvent
Protocol: (§1) This mutagenicity testing was performed using DMSO as the solvent. Six dose levels were tested in duplicate, with and without metabolic activation, in five tester strains (TA1535, TA1537, TA1538, TA98, and TA100). The tests were repeated to ensure reproducibility.
Ames test of the 2,4-di-(o-hydroxy-p-pyrrolidino phenyl) cyclobutene diylium-1,3-diolate (hydroxy pyrrolidino squarylium or OHPYRRSQ) of the present invention dye was conducted.
This compound was examined for mutagenic activity in the Ames Salmonella/microsome assay using the five standard strains of Salmonella typhimurium: TA1535, TA1537, TA1538, TA98 and TA100. All assays were performed in duplicate, both in the presence and the absence of a rat-liver metabolic activation system. DMSO was used as the solvent.
The compound was tested on two separate days at doses ranging from […]. Low-level S-9 was used in the first assay and high-level S-9 was used in the confirming assay.

[2] = Ames test for mutagenicity, tester strain TA1538; assay type: cell-based, Salmonella typhimurium
Protocol: (§2) Ames test of the prior art dye 2,4-di-(o-hydroxy-p-dimethylamino phenyl) cyclobutene diylium-1,3- diolate was then conducted. This dye is of the type shown in Example 11 of aforesaid US-A-3,824,099.
as §1

TA1538 = assay: Ames test for mutagenicity, tester strain TA1538; assay type: cell-based, Salmonella typhimurium
Protocol: as §2, §1

[3] = Ames test for mutagenicity, tester strain TA98; assay type: cell-based, Salmonella typhimurium; details: read-out: TA98 × background
Protocol: as §2, §1

TA98 = assay: Ames test for mutagenicity, tester strain TA98; assay type: cell-based, Salmonella typhimurium
Protocol: as §2, §1

[4] = purified dye, dimethylamino phenol precursor distilled, DMSO solvent, replicate Test no./Assay no.
[5] = without purification of the dye, replicate Assay no.

Row | Compound | Dose level at and above which precipitate was observed [1] | fold induction ([2]; ames ta1538, purified dye, dimethylamino phenol precursor distilled, DMSO solvent, replicate Test no./Assay no., read-out: TA1538 × background) | fold induction ([2]; ames ta1538, without purification of the dye, replicate Assay no., read-out: TA1548 × background) | TA1538 × background (TA1538; [4]) | TA1548 × background (TA1538; [5]) [× background] | fold induction ([3]; ames ta98, purified dye, dimethylamino phenol precursor distilled, DMSO solvent, replicate Test no./Assay no.) | fold induction ([3]; ames ta98, without purification of the dye, replicate Assay no.) | TA98 × background (TA98; [4]) | TA98 × background (TA98; [5]) [× background]
1 | O=C1C(=C2C=CC(=[N+]3CCCC3)C=C2O)C([O-])=C1c1ccc(N2CCCC2)cc1O [OHPYRRSQ, 2,4-di-(o-hydroxy-p-pyrrolidinophenyl) cyclobutene diylium-1,3-diolate] | ≥ 500 | – | – | – | – | – | – | – | –
2 | CN(C)c1ccc(C2=C([O-])C(=C3C=CC(=[N+](C)C)C=C3O)C2=O)c(O)c1 [OHSQ, 2,4-di-(o-hydroxy-p-dimethylaminophenyl) cyclobutene diylium-1,3-diolate] | – | 2.9 | 4.9 | 2.9 × background and 2.8 × background and 3.3 × background | 6.8 | 2.4 | 2.6 | 2.3 × background and 2.7 × background and 2.90 × background | 3.3
